Laboratory results taken from US7964723B2, “And practical process for exclusively producing (S)-9-fluoro-3-methyl-10-(4-methyl-1-piperazinyl)-7-oxo-2,3-dihydro-7H-pyrido-[1,2,3,de][1,4]benzoxazine-6-carboxylic acid hemihydrate” (Apeloa-Kangyu, priority 2008, dated 2011).
Where two headings read alike, the source gives them in different places.

Key:
[1] = loss of crystal water on drying; type: physicochemical; conditions: 50° C. under vacuum of around 60 mm/Hg for a couple of hours; theoretical water 2.43%
Description: Levofloxacin hemihydrate contains a theoretical amount of water of 2.43%.

[2] = hemihydrate compared with monohydrate; cited from earlier work
[3] = cited from earlier work
[4] = system: gram-positive and gram-negative bacteria; conditions: cited from earlier work

SMILES	water lost by drying [1]	phase stability as a drug substance [2]	drying temperature at which crystal water is lost (anhydrous form results) ([3]; under atmospheric pressure)	drying temperature at which crystal water is lost (anhydrous form results) ([3]; under reduced pressure)	potency in inhibiting the multiplication of bacteria relative to its (+)-enantiomer ([4]; gram-positive and gram-negative bacteria, versus (+)-enantiomer)	activity relative to its racemate, ofloxacine ([4]; versus racemate)
C[C@H]1COc2c(N3CCN(C)CC3)c(F)cc3c(=O)c(C(=O)O)cn1c23 [Levofloxacin hemihydrate, (−)-(S)-9-fluoro-3-methyl-10-(4-methyl-1-piperazinyl)-7-oxo-2,3-dihydro-7H-pyrido-[1,2,3-de] [1,4] benzoxazine-6-carboxylic acid hemihydrate]	0.20-0.30%	superior to the monohydrate	around 70 °C	around 60 °C		
C[C@H]1COc2c(N3CCN(C)CC3)c(F)cc3c(=O)c(C(=O)O)cn1c23 [Levofloxacin, (S)-9-fluoro-3-methyl-10-(4-methyl-1-piperazinyl)-7-oxo-2,3-dihydro-7H-pyrido-[1,2,3-de][1,4]benzoxazine-6-carboxylic acid]					8-128 times	approximately 2 times
